Reference: patent publication US20180236016A1, “NEUROTRANSMITTER AND BRAIN MODULATING ORAL DELIVERY SYSTEM FOR ENHANCEMENT OF COGNITIVE FUNCTIONS AND ENERGY” (Steady Nutrition LLC, priority 2017, published 2018)

Assays:
[1] = in vivo; cited from earlier work
[2] = cited from earlier work
[3] = Sedimentation / precipitation of theobromine in the filled product; type: physicochemical; conditions: in the emulsions of Example 3
Description: 2000 ml of conventional water based energy drink supplements were produced by blending all ingredients below, heating to 170 F and cooling to ambient temperature. About 30 ml of each composition were filled into HDPE plastic bottles. Example 1A contained 210 mg caffeine, 460 mg taurine, 120 mg N Acetyl L-Tyrosine, 300 mg glucuronolactone/30 ml serving. The water activity was 0.95; water content was 86% and pH of 2.90. […] Products were filled into 30 ml HDPE bottles and capped.
For each formulation, 1000 g batches were made. Milk fat and cocoa butter were weighted up and pre-blended at the specified amounts, then heated up to 130 F in a processing vessel. Water, mono and diglycerides, sugar, glycerin, cocoa powder and other optional ingredients were added Caffeine, theobromine, glucuronolactone, taurine and N acetyl L-tyrosine were mixed in. The admixture was heated up to 170-180 F for about 5 minutes and then cooled to 100 F. The water activity was adjusted to 0.85 or lower by the addition of glycerin. The entire admixture was homogenized at 1,000 psi for example 3A and at to 3,000 psi for example 3B and 3C. […] Water activity readings were 0.81, 0.82 and 0.72 for example 3A, 3B and 3C respectively. The pH readings were 5.8, 5.3 and 6.7 for example 3A, 3B and 3C respectively. Viscosity readings were 110, 170 and 250 centipoise for example 3A, 3B and 3C respectively.

Compound	impact is felt in [1]	water solubility [2]	half-life [1]	precipitation of theobromine [3]	fat / lipid solubility [2]
Cn1c(=O)c2c(ncn2C)n(C)c1=O [caffeine, reference compound]	15 to 30 min				
Cn1cnc2c1c(=O)[nH]c(=O)n2C [theobromine]		not water soluble	7 to 12 h	not precipitated	
Phosphatidylcholine		not water soluble			only lipid soluble
Phosphatidylserine [PS]		not water soluble			only lipid soluble
